Measured values: patent US11957684B2, “Treatment of heavy menstrual bleeding associated with uterine fibroids” (Sumitomo Pharma Switzerland GmbH, priority 2016, dated 2024)
“And” between values parts separate entries of the source, which are not always exact repeats. Identical values can stand only once.

Legend:
[1] = Example 9 6-week phase 1 study with or without E2/NETA: pharmacokinetics; assay type: in vivo; conditions: female, human, plasma, 40 mg; for half-life: plasma Compound 1 t1/2, mean (SD); for Tmax: plasma Compound 1 tmax, median (min, max)
Excerpt: Methods: This was a 6-week phase 1, randomized, open-label, parallel-group, study conducted at 4 sites in the US. […] The first day of dosing occurred on Day 1 to 6 of the menstrual cycle. Hormonal preparations were prohibited for at least 3 months prior to screening. […] Vasomotor symptoms were captured using a daily diary (from screening until follow-up).

FIG. 7B = assay: FIG. 7B
Excerpt: Table printed on a drawing sheet, FIG. 7B
The patent's description of the figure: FIGS. 7A-F are tables of plasma PK parameters for Cohorts 8 to 10 in accordance with Example 4.
First reader's note: Each column is a dose group; per the description these are Day 1 plasma PK values for Cohorts 8 to 10.

[2] = system: women with uterine fibroids; conditions: in vivo
Excerpt: Secondary endpoints for safety included: Adverse events (AEs), vital signs, weight, standard 12-lead electrocardiogram (ECG), clinical laboratory tests, BMD, biochemical bone metabolism markers (serum N-telopeptide [NTELOP] and bone specific alkaline phosphatase [BAP])

CONC(=O)Nc1ccc(-c2sc3c(c2CN(C)C)c(=O)n(-c2ccc(OC)nn2)c(=O)n3Cc2c(F)cccc2F)cc1 [Compound 1, N-(4-(1-(2,6-difluorobenzyl)-5-((dimethylamino)methyl)-3-(6-methoxy-3-pyridazinyl)-2,4-dioxo-1,2,3,4-tetrahydrothieno[2,3-d]pyrimidin-6-yl)phenyl)-N′-methoxyurea]
AUC(0-t) ([1]; Compound 1 AUC0-24, geometric mean (CV%), Week 6): 116 ng·h/mL
Cmax ([1]; Compound 1 Cmax, geometric mean (CV%), Week 6): 17.6 ng/mL
AUC(0-t) ([1]; plasma Compound 1 AUC0-24, mean (SD), Week 3): 133 ng·h/mL
AUC(0-t) ([1]; plasma Compound 1 AUC0-24, mean (SD), Week 6): 125 ng·h/mL
concentration at 3 week ([1]; plasma Compound 1 Cavg, mean (SD), Week 3): 5.53 ng/mL
concentration at 6 week ([1]; plasma Compound 1 Cavg, mean (SD), Week 6): 5.2 ng/mL
Cmax ([1]; plasma Compound 1 Cmax, mean (SD), Week 3): 21.8 ng/mL
Cmax ([1]; plasma Compound 1 Cmax, mean (SD), Week 6): 19.5 ng/mL
concentration at 3 week ([1]; plasma Compound 1 Ctrough, mean (SD), Week 3): 2.57 ng/mL
concentration at 6 week ([1]; plasma Compound 1 Ctrough, mean (SD), Week 6): 2.45 ng/mL
half-life ([1]; Week 3): 16.7 h
half-life ([1]; Week 6): 17.1 h
Tmax ([1]; Week 3): 2.02 h
Tmax ([1]; Week 6): 2 h
CL/F (L/hr) | Mean (FIG. 7B): 959.7 L/h and 697.6 L/h
Tmax (hr) | Median (FIG. 7B): 1.480 h

CCNC(=O)[C@@H]1CCCN1C(=O)[C@H](CCCNC(=N)N)NC(=O)[C@H](CC(C)C)NC(=O)[C@@H](CC(C)C)NC(=O)[C@H](Cc1ccc(O)cc1)NC(=O)[C@H](CO)NC(=O)[C@H](Cc1c[nH]c2ccccc12)NC(=O)[C@H](Cc1c[nH]cn1)NC(=O)[C@@H]1CCC(=O)N1 [leuprolide acetate, reference compound]
AE leading to discontinuation: Abdominal pain [2]: 1(0.7) n(%)
AE leading to discontinuation: Arthralgia [2]: 1(0.7) n(%)
AE leading to discontinuation: Back pain [2]: 1(0.7) n(%)
AE leading to discontinuation: Blood pressure increased [2]: 1(0.7) n(%)
AE leading to discontinuation: Depression [2]: 0(0.0) n(%)
AE leading to discontinuation: Drug eruption [2]: 1(0.7) n(%)
AE leading to discontinuation: Fatigue [2]: 0(0.0) n(%)
AE leading to discontinuation: Headache [2]: 0(0.0) n(%)
AE leading to discontinuation: Hot flush [2]: 1(0.7) n(%)
AE leading to discontinuation: Hypertension [2]: 1(0.7) n(%)
AE leading to discontinuation: Liver function test abnormal [2]: 1(0.7) n(%)
AE leading to discontinuation: Liver function test increased [2]: 1(0.7) n(%)
AE leading to discontinuation: Malaise [2]: 1(0.7) n(%)
AE leading to discontinuation: Nausea [2]: 1(0.7) n(%)
AE leading to discontinuation: Pyrexia [2]: 1(0.7) n(%)
AE leading to discontinuation: Tenosynovitis [2]: 0(0.0) n(%)
AE leading to discontinuation: Tenosynovitis stenosans [2]: 0(0.0) n(%)
AE: Arthralgia [2]: 9(6.3) n(%)
AE: Bone density decreased [2]: 8(5.6) n(%)
AE: Bone resorption test abnormal [2]: 7(4.9) n(%)
AE: Dizziness [2]: 7(4.9) n(%)
AE: Gamma-glutamyl transferase increased [2]: 9(6.3) n(%)
AE: Genital haemorrhage [2]: 7(4.9) n(%)
AE: Headache [2]: 14(9.9) n(%)
AE: Hot flush [2]: 75(52.8) n(%)
AE: Hyperhidrosis [2]: 15(10.6) n(%)
AE: Malaise [2]: 5(3.5) n(%)
AE: Menorrhagia [2]: 22(15.5) n(%)
AE: Metrorrhagia [2]: 93(65.5) n(%)
AE: Resorption bone increased [2]: 8(5.6) n(%)
AE: Somnolence [2]: 6(4.2) n(%)
AE: Viral upper respiratory tract infection [2]: 46(32.4) n(%)
AEs Leading to Study Drug Discontinuation [2]: 7(4.9) n(%)
ALP > 3 × ULN [2]: 0 (0.0) n (%)
ALT > 3 × ULN [2]: 2 (1.4) n (%)
ALT > 5 × ULN [2]: 0 (0.0) n (%)
ALT and AST > 3 × ULN [2]: 0 (0.0) n (%)
ALT or AST > 3 × ULN with Tbili > 2 × ULN [2]: 0 (0.0) n (%)
AST > 3 × ULN [2]: 0 (0.0) n (%)
AST > 5 × ULN [2]: 0 (0.0) n (%)
Any Markedly Abnormal LFT [2]: 2 (1.4) n (%)
SAEs Leading to Study Drug Discontinuation [2]: 0(0.0) n(%)
Serious Treatment-Emergent AEs [2]: 2(1.4) n(%)
Serious Treatment-Emergent AEs, Not Related [2]: 2(1.4) n(%)
Serious Treatment-Emergent AEs, Related [2]: 0(0.0) n(%)
Treatment-Emergent AEs [2]: 139(97.9) n(%)
Treatment-Emergent AEs, Not Related [2]: 5(3.5) n(%)
Treatment-Emergent AEs, Related [2]: 134(94.4) n(%)
